One assay deals with T1, human PHD2 (PHD2181-417) (Homo sapiens, UniProt Q9GZT9).
T1 construct: Smt (SUMO) tag (cleaved yes); made in house; host or cells: E. coli BL21 (pBAD vector)
As to the kind of experiment: PHD enzymatic assay ([14C]-succinic acid production). The assay is classed as biochemical. The conditions noted are these: PHD2181-417, HIF-1α peptide 10 μM, average of results; read-out: Enzyme pIC50 (converted). The procedure, abridged:
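Activity measured as [14C]-succinic acid formed from [5-14C]-2-oxoglutarate over 10 minutes, with peptide substrate at 10 μM, in Tris-HCl pH 7.5 buffer containing catalase, DTT and ascorbate. Unreacted oxoglutarate removed by DNP derivatisation; supernatant beta-counted.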

The next assay concerns Hep-3B cells. As to the kind of experiment: Cellular assay: erythropoietin secretion in Hep-3B cells. It counts as cell-based, human. The conditions noted are these: Homo sapiens, Hep3B, 100 μM compound, 24 hours, percent of EPO secretion relative to assay control compound 7-[(4-Chloro-phenyl)-(5-methyl-isoxazol-3-ylamino)-methyl]-quinolin-8-ol, read-out: Cellular % EPO Stimulation. The essentials: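 Hep-3B cells in DMEM with 10% FBS, treated 24 h after plating with compounds at 100 μM final for a further 24 h. Secreted EPO in supernatant measured by MSD electrochemiluminescence sandwich immunoassay with anti-EPO detection antibody.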

SMILES strings stand for the structures.

T1 sequence (Q9GZT9 181-417): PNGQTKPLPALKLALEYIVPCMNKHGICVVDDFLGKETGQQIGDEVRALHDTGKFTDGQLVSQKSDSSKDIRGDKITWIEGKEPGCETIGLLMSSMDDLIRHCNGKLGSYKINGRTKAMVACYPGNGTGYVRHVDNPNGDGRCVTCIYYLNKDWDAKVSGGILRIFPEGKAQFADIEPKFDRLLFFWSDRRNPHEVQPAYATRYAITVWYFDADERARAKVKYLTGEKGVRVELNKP

In the case of `O=C(O)c1cnn(-c2nc3ccc(Oc4cccc(-c5ccccc5)c4)cc3c(=O)[nH]2)c1` [Example 99, 1-[6-(biphenyl-3-yloxy)-4-oxo-3,4-dihydro-quinazolin-2-yl]-1H-pyrazole-4-carboxylic acid], the IC50 on human PHD2 (PHD2181-417) is 0.0251 µM. For the same compound, the Emax at 100 µM in the assay on Hep-3B cells was 81%.

As to `O=C(O)c1cnn(-c2nc3ccc(Oc4cccc(C(F)(F)F)c4)cc3c(=O)[nH]2)c1` [Example 100, 1-[4-oxo-6-(3-trifluoromethyl-phenoxy)-3,4-dihydro-quinazolin-2-yl]-1H-pyrazole-4-carboxylic acid], at human PHD2 (PHD2181-417), the IC50 was 0.0251 µM. For the same compound, in the assay with Hep-3B cells, the Emax at 100 µM worked out at 55%.

Turning to `O=C(O)c1cnn(-c2nc3cc(F)c(Oc4c(Cl)cccc4Cl)c(F)c3c(=O)[nH]2)c1` [Example 101, 1-[6-(2,6-dichloro-phenoxy)-5,7-difluoro-4-oxo-3,4-dihydro-quinazolin-2-yl]-1H-pyrazole-4-carboxylic acid], at human PHD2 (PHD2181-417), the IC50 was 0.0251 µM. Also, in the assay with Hep-3B cells, the Emax at 100 µM stood at 24%.

Take `O=C(O)c1cnn(-c2nc3ccc(OC4CCCCC4)cc3c(=O)[nH]2)c1` [Example 102, 1-(6-cyclohexyloxy-4-oxo-3,4-dihydro-quinazolin-2-yl)-1H-pyrazole-4-carboxylic acid]: at human PHD2 (PHD2181-417), the IC50 was 0.02 µM. For the same compound, the Emax at 100 µM with Hep-3B cells amounted to 59%.

In the case of `CN1CCN(c2ccc3nc(-n4cc(C(=O)O)cn4)[nH]c(=O)c3c2)CC1` [Example 103, 1-[6-(4-methyl-piperazin-1-yl)-4-oxo-3,4-dihydro-quinazolin-2-yl]-1H-pyrazole-4-carboxylic acid], at human PHD2 (PHD2181-417), the IC50 was 0.0631 µM. The Emax at 100 µM in the assay with Hep-3B cells turned out to be 30%.

In the case of `CC(C)Oc1ccc2nc(-n3cc(C(=O)O)cn3)[nH]c(=O)c2c1` [Example 104, 1-(6-isopropoxy-4-oxo-3,4-dihydro-quinazolin-2-yl)-1H-pyrazole-4-carboxylic acid], the IC50 at human PHD2 (PHD2181-417) was 0.0316 µM. Moreover, the Emax at 100 µM in the assay on Hep-3B cells was found to be 75%.

Take `O=C(O)c1cnn(-c2nc3ccc(Cc4ccccc4)cc3c(=O)[nH]2)c1` [Example 105, 1-(6-benzyl-4-oxo-3,4-dihydro-quinazolin-2-yl)-1H-pyrazole-4-carboxylic acid]: the IC50 at human PHD2 (PHD2181-417) was 0.0316 µM. The Emax at 100 µM in the assay on Hep-3B cells worked out at 129%.

`O=C(O)c1cnn(-c2nc3ccc(-c4ccccc4)cc3c(=O)[nH]2)c1` [Example 106, 1-(4-oxo-6-phenyl-3,4-dihydro-quinazolin-2-yl)-1H-pyrazole-4-carboxylic acid]: on human PHD2 (PHD2181-417), the IC50 was 0.0316 µM. Further, the Emax at 100 µM in the assay with Hep-3B cells worked out at 129%.

Turning to `O=C(O)c1cnn(-c2nc3ccc(N4CCOCC4)cc3c(=O)[nH]2)c1` [Example 107, 1-(6-morpholin-4-yl-4-oxo-3,4-dihydro-quinazolin-2-yl)-1H-pyrazole-4-carboxylic acid], the IC50 on human PHD2 (PHD2181-417) was 0.0398 µM. Besides, the Emax at 100 µM in the assay on Hep-3B cells turned out to be 45%.

As to `O=C(O)c1cnn(-c2nc3ccc(-c4ccc5cc[nH]c5c4)cc3c(=O)[nH]2)c1` [Example 108, 1-[6-(1H-Indol-6-yl)-4-oxo-3,4-dihydro-quinazolin-2-yl]-1H-pyrazole-4-carboxylic acid], the IC50 at human PHD2 (PHD2181-417) is 0.0251 µM. For the same compound, in the assay on Hep-3B cells, the Emax at 100 µM is 85%.

As to `O=C(O)c1cnn(-c2nc3ccc(C4CC4)cc3c(=O)[nH]2)c1` [Example 109, 1-(6-Cyclopropyl-4-oxo-3,4-dihydro-quinazolin-2-yl)-1H-pyrazole-4-carboxylic acid], the IC50 on human PHD2 (PHD2181-417) is 0.0251 µM. Besides, in the assay on Hep-3B cells, the Emax at 100 µM worked out at 100%.

`O=C(O)c1cnn(-c2nc3cc(F)c(C4CCCCC4)cc3c(=O)[nH]2)c1` [Example 110, 1-(6-Cyclohexyl-7-fluoro-4-oxo-3,4-dihydro-quinazolin-2-yl)-1H-pyrazole-4-carboxylic acid]: at human PHD2 (PHD2181-417), the IC50 was 0.158 µM. For the same compound, in the assay on Hep-3B cells, the Emax at 100 µM is 47%.

Turning to `O=C(O)c1cnn(-c2nc3c(-c4ccccc4)cccc3c(=O)[nH]2)c1` [Example 111, 1-(4-Oxo-8-phenyl-3,4-dihydro-quinazolin-2-yl)-1H-pyrazole-4-carboxylic acid], at human PHD2 (PHD2181-417), the IC50 was 0.126 µM. In the assay with Hep-3B cells, the Emax at 100 µM was found to be 24%.

Regarding `O=C(O)c1cnn(-c2nc3c(Oc4ccccc4)cccc3c(=O)[nH]2)c1` [Example 112, 1-(4-Oxo-8-phenoxy-3,4-dihydro-quinazolin-2-yl)-1H-pyrazole-4-carboxylic acid], the IC50 on human PHD2 (PHD2181-417) is 0.158 µM. Besides, the Emax at 100 µM in the assay on Hep-3B cells was found to be 18%.

As to `O=C(O)c1cnn(-c2nc3c(Sc4ccccc4)cccc3c(=O)[nH]2)c1` [Example 113, 1-(4-Oxo-8-phenylsulfanyl-3,4-dihydro-quinazolin-2-yl)-1H-pyrazole-4-carboxylic acid], the IC50 at human PHD2 (PHD2181-417) was 0.2 µM. Moreover, the Emax at 100 µM in the assay on Hep-3B cells is 17%.

`CC(C)c1cccc2c(=O)[nH]c(-n3cc(C(=O)O)cn3)nc12` [Example 114, 1-(8-Isopropyl-4-oxo-3,4-dihydro-quinazolin-2-yl)-1H-pyrazole-4-carboxylic acid]: the IC50 on human PHD2 (PHD2181-417) was 0.251 µM. Further, in the assay with Hep-3B cells, the Emax at 100 µM was found to be 16%.

Turning to `CC(C)(C)c1cccc2c(=O)[nH]c(-n3cc(C(=O)O)cn3)nc12` [Example 115, 1-(8-tert-Butyl-4-oxo-3,4-dihydro-quinazolin-2-yl)-1H-pyrazole-4-carboxylic acid], the IC50 at human PHD2 (PHD2181-417) was 0.158 µM. Besides, the Emax at 100 µM in the assay with Hep-3B cells came out at 27%.

Take `O=C(O)c1cnn(-c2nc3c(F)ccc(F)c3c(=O)[nH]2)c1` [Example 116, 1-(5,8-Difluoro-4-oxo-3,4-dihydro-quinazolin-2-yl)-1H-pyrazole-4-carboxylic acid]: on human PHD2 (PHD2181-417), the IC50 is 0.2 µM. The Emax at 100 µM in the assay with Hep-3B cells is 17%.

For `O=C(O)c1cnn(-c2nc3c(OC(F)(F)F)cccc3c(=O)[nH]2)c1` [Example 117, 1-(4-Oxo-8-trifluoromethoxy-3,4-dihydro-quinazolin-2-yl)-1H-pyrazole-4-carboxylic acid], the IC50 on human PHD2 (PHD2181-417) was 0.794 µM. For the same compound, the Emax at 100 µM in the assay with Hep-3B cells was 12%.

As to `O=C(O)c1cnn(-c2nc3c(F)cccc3c(=O)[nH]2)c1` [Example 118, 1-(8-Fluoro-4-oxo-3,4-dihydro-quinazolin-2-yl)-1H-pyrazole-4-carboxylic acid], the IC50 at human PHD2 (PHD2181-417) was 0.0794 µM. Moreover, the Emax at 100 µM in the assay with Hep-3B cells was found to be 16%.

`CC(C)c1ccc2nc(-n3cc(C(=O)O)cn3)[nH]c(=O)c2c1` [Example 119, 1-(6-Isopropyl-4-oxo-3,4-dihydro-quinazolin-2-yl)-1H-pyrazole-4-carboxylic acid]: the IC50 on human PHD2 (PHD2181-417) is 0.0158 µM. The Emax at 100 µM in the assay on Hep-3B cells amounted to 115%.

Take `CCC(C)c1ccc2nc(-n3cc(C(=O)O)cn3)[nH]c(=O)c2c1` (stereo not shown) [Example 120, 1-(6-sec-Butyl-4-oxo-3,4-dihydro-quinazolin-2-yl)-1H-pyrazole-4-carboxylic acid]: the IC50 on human PHD2 (PHD2181-417) was 0.02 µM. Further, the Emax at 100 µM in the assay on Hep-3B cells is 68%.

Regarding `CCOc1ccc2nc(-n3cc(C(=O)O)cn3)[nH]c(=O)c2c1` [Example 121, 1-(6-Ethoxy-4-oxo-3,4-dihydro-quinazolin-2-yl)-1H-pyrazole-4-carboxylic acid], the IC50 at human PHD2 (PHD2181-417) is 0.01 µM. Besides, the Emax at 100 µM in the assay with Hep-3B cells worked out at 30%.

On to `COc1ccc2nc(-n3cc(C(=O)O)cn3)[nH]c(=O)c2c1` [Example 122, 1-(6-Methoxy-4-oxo-3,4-dihydro-quinazolin-2-yl)-1H-pyrazole-4-carboxylic acid], for which the IC50 on human PHD2 (PHD2181-417) is 0.0251 µM. For the same compound, the Emax at 100 µM in the assay on Hep-3B cells was 16%.

Turning to `O=C(O)c1cnn(-c2nc3ccc(N4CCCC4)cc3c(=O)[nH]2)c1` [Example 123, 1-(4-Oxo-6-pyrrolidin-1-yl-3,4-dihydro-quinazolin-2-yl)-1H-pyrazole-4-carboxylic acid], on human PHD2 (PHD2181-417), the IC50 is 0.0398 µM. Moreover, in the assay on Hep-3B cells, the Emax at 100 µM worked out at 17%.

Consider `O=C(O)c1cnn(-c2nc3ccc(N4CCCCC4)cc3c(=O)[nH]2)c1` [Example 124, 1-(4-Oxo-6-piperidin-1-yl-3,4-dihydro-quinazolin-2-yl)-1H-pyrazole-4-carboxylic acid], for which the IC50 at human PHD2 (PHD2181-417) is 0.0398 µM. Moreover, the Emax at 100 µM in the assay with Hep-3B cells stood at 71%.

For `CN(C)c1ccc2nc(-n3cc(C(=O)O)cn3)[nH]c(=O)c2c1` [Example 125, 1-(6-Dimethylamino-4-oxo-3,4-dihydro-quinazolin-2-yl)-1H-pyrazole-4-carboxylic acid], on human PHD2 (PHD2181-417), the IC50 was 0.0501 µM. In the assay with Hep-3B cells, the Emax at 100 µM was found to be 19%.

`O=C(O)c1cnn(-c2nc3ccccc3c(=O)[nH]2)c1` [Example 126, 1-(4-Oxo-3,4-dihydro-quinazolin-2-yl)-1H-pyrazole-4-carboxylic acid]: the IC50 at human PHD2 (PHD2181-417) is 0.0631 µM. For the same compound, the Emax at 100 µM in the assay on Hep-3B cells is 9%.

As for `O=C(O)c1cnn(-c2nc3cc(F)c(Br)cc3c(=O)[nH]2)c1` [Example 127, 1-(6-Bromo-7-fluoro-4-oxo-3,4-dihydro-quinazolin-2-yl)-1H-pyrazole-4-carboxylic acid], the IC50 at human PHD2 (PHD2181-417) is 0.0316 µM. Moreover, the Emax at 100 µM in the assay on Hep-3B cells amounted to 9%.

Regarding `CCc1ccc2nc(-n3cc(C(=O)O)cn3)[nH]c(=O)c2c1` [Example 128, 1-(6-Ethyl-4-oxo-3,4-dihydro-quinazolin-2-yl)-1H-pyrazole-4-carboxylic acid], at human PHD2 (PHD2181-417), the IC50 was 0.0398 µM. Further, the Emax at 100 µM in the assay with Hep-3B cells was 53%.

`CCCc1ccc2nc(-n3cc(C(=O)O)cn3)[nH]c(=O)c2c1` [Example 129, 1-(4-Oxo-6-propyl-3,4-dihydro-quinazolin-2-yl)-1H-pyrazole-4-carboxylic acid]: at human PHD2 (PHD2181-417), the IC50 is 0.0316 µM. Also, in the assay on Hep-3B cells, the Emax at 100 µM turned out to be 94%.

`O=C(O)c1cnn(-c2nc3c(F)cc(Br)cc3c(=O)[nH]2)c1` [Example 130, 1-(6-Bromo-8-fluoro-4-oxo-3,4-dihydro-quinazolin-2-yl)-1H-pyrazole-4-carboxylic acid]: the IC50 at human PHD2 (PHD2181-417) is 0.0794 µM. Moreover, in the assay with Hep-3B cells, the Emax at 100 µM came out at 12%.
